Series [1] has as its system adjuvant arthritis induced in rats. Briefly: adjuvant arthritis analgesic bioassay (tail pinch / foot bend squeak response). It is filed as in vivo, Sprague-Dawley rats. From the text: Since analgesic tests using intact animals are not sensitive enough to detect the analgesic activity of nonsteroidal anti-inflammatory compounds, the analgesic bioassay employed utilized inflammatory sensitization procedures, specifically adjuvant arthritis. Adjuvant arthritis induced in rats, the animals used in the bioassay, resembles rheumatoid arthritis in man with respect to the manifestation of inflammation and hyperalgesia. When the affected joints of rats with adjuvant arthritis are subjected to a gentle manipulation, preferably by extending the joint, the rats respond by squeaking, which is a definite and reproducible sign of algesia. The ability of the tested compounds to suppress this squeaking response was an accurate measure of the analgesic activity of the tested compounds.
In accordance with the adjuvant arthritis bioassay used to evaluate the analgesic activity of the combinations of compounds of the present invention, young adult Sprague-Dawley rats of either sex are rendered hyperalgesic by injection of dessicated Mycobacterium- butyricum suspended in light mineral oil (Freund's adjuvant). The mycobacteria are ground in a mortar, suspended in the oil, and sterilized in an autoclave. Each animal receives 0.5 mg of the bacteria in 0.1 ml of oil, injected subcutaneously through a 21-gauge needle into the distal third of the tail.
The animals can subsequently be used in two ways for testing the analgesic action of drugs. The day after the injection of adjuvant, the tail is found to be sensitive to touch. Approximately 16 hours after the injection, the experimenter tests the animals for the presence of hyperalgesia. This is done by holding the animal in one hand. With the thumb and forefinger of the other hand, the observer applies gentle pressure to the tail about 2.5 cm proximal to the point where the needle has been inserted. This gentle pressure is repeated at 5-sec intervals. If the rat endures five such gentle presses without emitting more than one "squeak", analgesia is considered to be present and a score of + is assigned. Two or more squeaks earns a rating of 0, or no analgesia. Before being assigned to an experiment, animals are screened and only those with the 0 rating are used.
The hyperalgesic animals are assigned randomly to drug treatments and one of the treatments is always the vehicle without the drug (placebo group). […] […] This entire procedure may be referred to as "tail pinch" .technique. Alternatively, an apparatus for applying pressure to the tail may be employed and the "squeak threshold" determined before and after drug.
The adjuvant-injected animals, if left undisturbed, develop severe arthritis which becomes especially manifest in about two weeks. […] This "foot bend" technique yields drug responses essentially identical with those obtained by the "tail pinch" procedure.
For a further description of this bioassay and its significance, reference is made to Kuzuma and Kawai, "Evaluation of Analgesic Agents in Rats with Adjuvant Arthritis", Chem. Pharm. Bull., 23 (6) 1184-1191 (1975).

Series [2] is described as follows: in vivo. Type of series: in vivo, mice. Particulars: mouse, in vivo, po. On the procedure:
(§1) Measurements of the relative safety of the components and of the combination were carried out using acute oral toxicity studies in female mice. Randomly selected female albino mice (Carworth CF-1) weighing from 18 to 24 grams, and 6 to 7 weeks old, were used. The LD50 value for each drug was estimated from acute oral dose-response curves previously established. The following dose regimen was utilized:
(§2) The preparations were administered by gastric intubation using a metal catheter attached to a springe. The various doses were administered randomly with 20 mice per group. Food was withheld one to two hours before and three hours following drug treatment. Water was available at all times. […] Body weights were taken pretest and on days 7 and 14.

In series [3] the test system is female albino mice (Carworth CF-1). Briefly: in vivo. Type of series: in vivo. Particulars: Group V: Acetaminophen 1500 mg./kg. (100 %LD50) alone; oral; 20 tested; 14 days. On the procedure: as §1, §2
In series [4] the test system is adjuvant arthritis induced in rats. Particulars: compounds known to be clinically active; cited from earlier work.

Several values for one entry are separate records, joined by “and”; a condition that tells them apart may be missing. Identical values can stand only once.

`CC(=O)Nc1ccc(O)cc1` [APAP, acetaminophen]: the “Number of Rats with Analgesia” value was 2 in series [1] (1/2 h after administration, dose 200 mg./kg., 8 rats per dose); 1 in series [1] (1 h after administration, dose 25 mg./kg., 10 rats per dose); 1 in series [1] (1 h after administration, dose 50 mg./kg., 10 rats per dose); 3 in series [1] (1 h after administration, dose 100 mg./kg., 10 rats per dose); 2 and 3 in series [1] (1 h after administration, dose 200 mg./kg., 8 rats per dose); 6 and 4 in series [1] (1 h after administration, dose 400 mg./kg., 8 rats per dose). The “Number of Rats with Analgesia” value in series [1] (2 h after administration, dose 25 mg./kg., 10 rats per dose) is 0; in series [1] (2 h after administration, dose 50 mg./kg., 10 rats per dose), 0; in series [1] (2 h after administration, dose 100 mg./kg., 8 rats per dose), 1; in series [1] (2 h after administration, dose 100 mg./kg., 10 rats per dose) it was 2; in series [1] (2 h after administration, dose 200 mg./kg., 8 rats per dose) it was 4 and 3; in series [1] (2 h after administration, dose 400 mg./kg., 8 rats per dose), 7. The “Number of Rats with Analgesia” value in series [1] (3 h after administration, dose 25 mg./kg., 10 rats per dose) came out at 0; in series [1] (3 h after administration, dose 50 mg./kg., 10 rats per dose), 0; in series [1] (3 h after administration, dose 100 mg./kg., 10 rats per dose), 0; in series [1] (3 h after administration, dose 200 mg./kg., 8 rats per dose), 4; in series [1] (3 h after administration, dose 400 mg./kg., 8 rats per dose), 6; in series [1] (4 h after administration, dose 25 mg./kg., 10 rats per dose), 0. Further, the “Number of Rats with Analgesia” value was 0 in series [1] (4 h after administration, dose 50 mg./kg., 10 rats per dose); 0 in series [1] (4 h after administration, dose 100 mg./kg., 8 rats per dose); 0 in series [1] (4 h after administration, dose 100 mg./kg., 10 rats per dose); 4 in series [1] (4 h after administration, dose 200 mg./kg., 8 rats per dose); 5 and 4 in series [1] (4 h after administration, dose 400 mg./kg., 8 rats per dose); 0 in series [1] (5 h after administration, dose 25 mg./kg., 10 rats per dose). The “Number of Rats with Analgesia” value was 0 in series [1] (5 h after administration, dose 50 mg./kg., 10 rats per dose); 0 in series [1] (5 h after administration, dose 100 mg./kg., 8 rats per dose); 0 in series [1] (5 h after administration, dose 100 mg./kg., 10 rats per dose); 2 and 1 in series [1] (5 h after administration, dose 200 mg./kg., 8 rats per dose); 2 and 3 in series [1] (5 h after administration, dose 400 mg./kg., 8 rats per dose); 0 in series [1] (6 h after administration, dose 25 mg./kg., 10 rats per dose). In addition, the “Number of Rats with Analgesia” value in series [1] (6 h after administration, dose 50 mg./kg., 10 rats per dose) was 0; in series [1] (6 h after administration, dose 100 mg./kg., 8 rats per dose) it was 0; in series [1] (6 h after administration, dose 100 mg./kg., 10 rats per dose) it was 0; in series [1] (6 h after administration, dose 400 mg./kg., 8 rats per dose), 1. Further, the “Percent of Rats with Analgesia APAP Alone” value in series [1] (1 Hrs. after drug, APAP 25 mg./kg., 10 rats per dose) is 10%; in series [1] (1 Hrs. after drug, APAP 200 mg./kg., 8 rats per dose) it was 25% and 37.5%; in series [1] (2 Hrs. after drug, APAP 50 mg./kg., 10 rats per dose), 0%; in series [1] (3 Hrs. after drug, APAP 100 mg./kg., 8 rats per dose), 0%; in series [1] (3 Hrs. after drug, APAP 100 mg./kg., 10 rats per dose), 0%; in series [1] (4 Hrs. after drug, APAP 25 mg./kg., 10 rats per dose) it was 0%. For the same compound, the “Percent of Rats with Analgesia APAP Alone” value in series [1] (4 Hrs. after drug, APAP 50 mg./kg., 10 rats per dose) came to 0%; in series [1] (4 Hrs. after drug, APAP 100 mg./kg., 8 rats per dose) it was 0%; in series [1] (4 Hrs. after drug, APAP 100 mg./kg., 10 rats per dose), 0%; in series [1] (5 Hrs. after drug, APAP 100 mg./kg., 8 rats per dose), 0%; in series [1] (5 Hrs. after drug, APAP 200 mg./kg., 8 rats per dose) it was 25%. For the same compound, the “Total Positives” value came out at 7 in series [1] (sum over 1/2, 1 and 2 h, dose 200 mg./kg., 8 rats per dose); 5 in series [1] (sum over 1 and 2 h, dose 100 mg./kg., 10 rats per dose). In addition, the LD50 in series [2] is 1500 mg/kg. Moreover, the “No. Dead” value in series [3] is given as 16.

As to `CC(=O)Oc1ccccc1C(=O)O` [aspirin], the “results in the adjuvant arthritis analgesic bioassay” value (shortened to “results”) in series [4] is listed as “positive, dose-dependent, reproducible results”.

For `CC(C)Cc1ccc(CC(=O)O)cc1` [ibufenac], in series [4], the “results” value is listed as “positive, dose-dependent, reproducible results”.

`COc1ccc2c(c1)c(CC(=O)O)c(C)n2C(=O)c1ccc(Cl)cc1` [indomethacin]: the “results” value in series [4] is “positive, dose-dependent, reproducible results”.

Usually LD50 stands for the dose at which mortality reaches 50%.

Values taken from patent EP0017102A1, “Composition containing a phenyl benzoic acid compound and acetaminophen combination for the treatment of pain and inflammation and process for preparing the same” (Merck & Co., Inc., priority 1979, dated 1980).
